Here are results for twelve compounds from PubChem BioAssay (NCI).

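Step 1: Grow cells in 96-well plates. Step 2: Expose to compound for 48 hours at 5 concentrations. Step 3: Interpolate endpoints linearly; if unreached, use highest concentration. GI50: concentration for 50% inhibition of growth. TGI marks complete inhibition of growth.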 A value given as a limit tells only on which side of the number the result lay.

Among the test systems are CAKI-1 renal; COLO 205 colon; K-562 leukemia; NCI-H522 lung; SF-268 CNS; SF-295 CNS; SF-539 CNS; SK-MEL-2 melanoma; SK-MEL-28 melanoma; SK-MEL-5 melanoma.
Holding throughout (assay): NCI tumour cell line growth inhibition, 48 h

`C/C(=N\Nc1ccc2ccccc2n1)c1ccccn1`: the TGI in the experiment with CAKI-1 renal came out at 0.59 µM; in the experiment with COLO 205 colon, 2.7 µM; in the experiment with K-562 leukemia, 1.68 µM; in the experiment with NCI-H522 lung, 0.21 µM; with SF-268 CNS, 10.8 µM; in the experiment on SF-295 CNS, 0.636 µM. Besides, the TGI in the experiment with SF-539 CNS is 0.487 µM; in the experiment on SK-MEL-2 melanoma, 9.01 µM; in the experiment with SK-MEL-28 melanoma, 16.2 µM; with SK-MEL-5 melanoma it was 2.24 µM. Also, the GI50 in the experiment with COLO 205 colon is under 0.0195 µM; in the experiment with SF-268 CNS, 0.0489 µM; in the experiment with SF-539 CNS, 0.0768 µM; with SK-MEL-2 melanoma it was 0.263 µM; with SK-MEL-28 melanoma, 0.345 µM; in the experiment on SK-MEL-5 melanoma, 0.103 µM.

With `COc1cccc(C=Nc2cc(C)ccn2)c1O.COc1cccc(C=Nc2cc(C)ccn2)c1O.[Cu]`, the GI50 was 20.5 µM with CAKI-1 renal; 18.9 µM with COLO 205 colon; 18.2 µM in the experiment on K-562 leukemia; 22.3 µM with NCI-H522 lung; 14.6 µM in the experiment with SF-268 CNS; 18 µM in the experiment with SF-295 CNS. The GI50 in the experiment with SF-539 CNS is 17 µM; in the experiment on SK-MEL-2 melanoma, 21.1 µM; in the experiment on SK-MEL-28 melanoma, 21.7 µM; with SK-MEL-5 melanoma, 7.39 µM. For the same compound, the TGI in the experiment on CAKI-1 renal worked out at 46 µM; with COLO 205 colon, 42.8 µM; in the experiment on K-562 leukemia, 68.1 µM; with NCI-H522 lung, 52.3 µM; with SF-268 CNS it was 42.2 µM; in the experiment on SF-295 CNS it was 46.1 µM. Besides, the TGI in the experiment on SF-539 CNS was 42.9 µM; in the experiment on SK-MEL-2 melanoma, 53.2 µM; with SK-MEL-28 melanoma, 48 µM; in the experiment with SK-MEL-5 melanoma, 20.9 µM.

Take `O=C1C(=O)c2c(nc3ccc(Cl)cn23)-c2ccccc21`: the GI50 in the experiment with CAKI-1 renal is 0.477 µM; with COLO 205 colon, 1.79 µM; in the experiment with K-562 leukemia, 0.163 µM; in the experiment on NCI-H522 lung, 0.668 µM; with SF-268 CNS, 0.307 µM; with SF-295 CNS it was 1.52 µM. Also, the GI50 is 0.189 µM in the experiment on SF-539 CNS, 0.432 µM with SK-MEL-2 melanoma, 0.253 µM in the experiment with SK-MEL-28 melanoma and 0.161 µM in the experiment on SK-MEL-5 melanoma. The TGI is 1.04 µM in the experiment on CAKI-1 renal; 3.54 µM in the experiment with COLO 205 colon; over 100 µM with K-562 leukemia; 2 µM with NCI-H522 lung; 1.18 µM in the experiment with SF-268 CNS; 3.13 µM in the experiment with SF-295 CNS. For the same compound, the TGI was determined as 0.358 µM in the experiment with SF-539 CNS, 1.61 µM in the experiment with SK-MEL-2 melanoma, 0.557 µM with SK-MEL-28 melanoma and 0.309 µM in the experiment with SK-MEL-5 melanoma.

As for `Cc1ccc(-c2cc(-c3ccc(C)cc3)nc(NCCNc3ccnc4cc(Cl)ccc34)n2)cc1`, the GI50 in the experiment with CAKI-1 renal was 1.43 µM; in the experiment with COLO 205 colon it was 1.69 µM; in the experiment on K-562 leukemia it was 1.82 µM; in the experiment on NCI-H522 lung, 1.75 µM; in the experiment on SF-268 CNS, 1.72 µM; in the experiment on SF-295 CNS, 1.8 µM. Besides, the GI50 was 1.91 µM in the experiment on SF-539 CNS, 1.9 µM in the experiment with SK-MEL-2 melanoma, 1.76 µM in the experiment with SK-MEL-28 melanoma and 1.83 µM in the experiment on SK-MEL-5 melanoma. Further, the TGI with CAKI-1 renal was found to be 2.82 µM; in the experiment with COLO 205 colon it was 3.48 µM; in the experiment on K-562 leukemia, 4.5 µM; with NCI-H522 lung it was 3.51 µM; in the experiment with SF-268 CNS it was 3.54 µM; in the experiment with SF-295 CNS, 3.49 µM. The TGI in the experiment on SF-539 CNS was 3.6 µM; in the experiment on SK-MEL-2 melanoma, 3.63 µM; in the experiment on SK-MEL-28 melanoma it was 3.38 µM; in the experiment on SK-MEL-5 melanoma, 3.44 µM.

With `COc1cc2nc(N3CCCC3)nc(NCC3CCCCC3)c2cc1OC`, the GI50 is 1.34 µM with CAKI-1 renal; 0.223 µM with COLO 205 colon; 0.334 µM in the experiment with K-562 leukemia; 1.56 µM in the experiment with NCI-H522 lung; 1.75 µM in the experiment on SF-268 CNS; 1.38 µM in the experiment with SF-295 CNS. Further, the GI50 in the experiment with SF-539 CNS was 0.817 µM; in the experiment with SK-MEL-2 melanoma it was 1.86 µM; with SK-MEL-28 melanoma it was 1.55 µM; in the experiment on SK-MEL-5 melanoma, 1.35 µM. For the same compound, the TGI in the experiment with CAKI-1 renal is 2.64 µM; in the experiment on COLO 205 colon, 0.499 µM; in the experiment with K-562 leukemia, 2.1 µM; in the experiment with NCI-H522 lung, 3.29 µM; with SF-268 CNS, 3.45 µM; with SF-295 CNS, 2.71 µM. The TGI stood at 2.15 µM in the experiment with SF-539 CNS, 3.51 µM in the experiment on SK-MEL-2 melanoma, 2.91 µM in the experiment on SK-MEL-28 melanoma and 2.68 µM in the experiment with SK-MEL-5 melanoma.

For `CCCn1c(C)nc2c1C(=O)c1ccccc1C2=O`, the GI50 in the experiment on CAKI-1 renal was 12.2 µM; in the experiment with COLO 205 colon, 37.6 µM; in the experiment on K-562 leukemia it was 9.87 µM; with NCI-H522 lung it was 18.7 µM; with SF-268 CNS, 20.8 µM; in the experiment on SF-295 CNS it was 13 µM. Further, the GI50 is 27.1 µM in the experiment with SF-539 CNS, 59.4 µM in the experiment on SK-MEL-2 melanoma, over 100 µM in the experiment with SK-MEL-28 melanoma and 13.4 µM with SK-MEL-5 melanoma. Further, the TGI in the experiment with CAKI-1 renal is 42.4 µM; in the experiment with COLO 205 colon, over 100 µM; in the experiment on K-562 leukemia, over 100 µM; in the experiment with NCI-H522 lung it was 75.1 µM; with SF-268 CNS it was over 100 µM; with SF-295 CNS, 41.6 µM. For the same compound, the TGI in the experiment with SF-539 CNS is over 100 µM; with SK-MEL-2 melanoma it was over 100 µM; with SK-MEL-28 melanoma, over 100 µM; in the experiment on SK-MEL-5 melanoma it was 27.2 µM.

With `C=CC(=O)Nc1cccc(C)c1Nc1cc(-c2cccnc2Cc2c(C)c(OC)cc(OC)c2C)ncn1`, the GI50 in the experiment on CAKI-1 renal was 9.97 µM; with COLO 205 colon it was 13.1 µM; with K-562 leukemia it was 7.55 µM; in the experiment with NCI-H522 lung it was 11.6 µM; in the experiment on SF-268 CNS it was 9.59 µM; in the experiment on SF-295 CNS it was 6.47 µM. Besides, the GI50 with SF-539 CNS is 3.47 µM; in the experiment on SK-MEL-2 melanoma, 12.6 µM; with SK-MEL-28 melanoma, 16.9 µM; with SK-MEL-5 melanoma, 10.7 µM. The TGI in the experiment on CAKI-1 renal is over 100 µM; with COLO 205 colon, over 100 µM; with K-562 leukemia, over 100 µM; in the experiment on NCI-H522 lung, 36.2 µM; in the experiment on SF-268 CNS, 60.3 µM; in the experiment on SF-295 CNS, 73.9 µM. In addition, the TGI with SF-539 CNS was 38.2 µM; in the experiment on SK-MEL-2 melanoma, 32.4 µM; in the experiment on SK-MEL-28 melanoma it was 69.2 µM; in the experiment on SK-MEL-5 melanoma, 23.5 µM.

Consider `CCOC(=O)C1=C(NC)OC/C1=N\NC(=O)c1ccccc1O`, for which the TGI in the experiment with CAKI-1 renal is over 100 µM; with COLO 205 colon it was over 100 µM; in the experiment with K-562 leukemia, over 100 µM; in the experiment with NCI-H522 lung, 90.5 µM; in the experiment on SF-268 CNS it was over 100 µM; with SF-295 CNS it was over 100 µM. Further, the TGI in the experiment on SF-539 CNS was 60.6 µM; in the experiment with SK-MEL-2 melanoma, 48.2 µM; in the experiment with SK-MEL-28 melanoma, over 100 µM; in the experiment with SK-MEL-5 melanoma it was over 100 µM.

As for `CCOc1ccc2nc(NC(=O)c3c/c(=N\NC(=O)C[N+](C)(C)C)c4ccc(O)cc4o3)sc2c1`, the TGI in the experiment on CAKI-1 renal came to 18.6 µM; in the experiment on COLO 205 colon, 20.7 µM; with K-562 leukemia, 6.08 µM; in the experiment on NCI-H522 lung, 4.14 µM; in the experiment with SF-268 CNS, 11.6 µM; in the experiment with SF-295 CNS it was 11.1 µM. The TGI with SF-539 CNS worked out at 11 µM; in the experiment on SK-MEL-2 melanoma it was 6.22 µM; with SK-MEL-28 melanoma it was 13 µM; in the experiment with SK-MEL-5 melanoma, 1.85 µM.

`O=C(C1CCCCC1)[C@@H]1[C@]2(C(=O)NC3CCCCC32)[C@@H]2CCCN2[C@@]12C(=O)NC1CCC(Cl)CC12` (stereo partly specified): the GI50 in the experiment on CAKI-1 renal was 80.8 µM; in the experiment with COLO 205 colon, 158 µM; in the experiment on K-562 leukemia, 41.2 µM; in the experiment on NCI-H522 lung, 120 µM; in the experiment on SF-268 CNS, 119 µM; with SF-295 CNS, 149 µM. In addition, the GI50 in the experiment with SF-539 CNS is 121 µM; in the experiment with SK-MEL-2 melanoma, 147 µM; in the experiment with SK-MEL-28 melanoma, 129 µM; with SK-MEL-5 melanoma it was 110 µM. For the same compound, the TGI is 225 µM with CAKI-1 renal; 323 µM in the experiment on COLO 205 colon; 220 µM in the experiment on K-562 leukemia; 281 µM in the experiment on NCI-H522 lung; 288 µM in the experiment with SF-268 CNS; 299 µM in the experiment on SF-295 CNS. In addition, the TGI was 255 µM in the experiment on SF-539 CNS, 321 µM with SK-MEL-2 melanoma, 278 µM in the experiment with SK-MEL-28 melanoma and 234 µM with SK-MEL-5 melanoma.

On to `Cc1cc(N/N=C/c2nc(-c3ccc(Br)cc3)oc2C)c2cc(Cl)ccc2n1`, for which the GI50 in the experiment with CAKI-1 renal, with COLO 205 colon, with K-562 leukemia, in the experiment with NCI-H522 lung, in the experiment with SF-268 CNS and in the experiment on SF-295 CNS was over 100 µM in each case. Besides, the GI50 in the experiment with SF-539 CNS, with SK-MEL-2 melanoma, in the experiment with SK-MEL-28 melanoma and in the experiment with SK-MEL-5 melanoma was over 100 µM each time. Also, the TGI in the experiment on CAKI-1 renal, with COLO 205 colon, with K-562 leukemia, in the experiment with NCI-H522 lung, in the experiment on SF-268 CNS and in the experiment with SF-295 CNS was over 100 µM in each case. Moreover, the TGI in the experiment on SF-539 CNS, with SK-MEL-2 melanoma, in the experiment on SK-MEL-28 melanoma and with SK-MEL-5 melanoma was over 100 µM throughout.

Take `COc1ccc(OC)c(NC(=O)CCC/C(CC(=O)c2ccc(O)c(OC)c2)=N\NC(=O)C[N+](C)(C)C)c1`: the TGI in the experiment on CAKI-1 renal, in the experiment with COLO 205 colon, in the experiment with K-562 leukemia, in the experiment on NCI-H522 lung, in the experiment on SF-268 CNS and in the experiment on SF-295 CNS was over 100 µM throughout. Also, the TGI in the experiment with SF-539 CNS, in the experiment with SK-MEL-2 melanoma, in the experiment on SK-MEL-28 melanoma and in the experiment on SK-MEL-5 melanoma was over 100 µM in each case.
